Source: patent US20070219272A1, “Novel method and compositions for treatment of tinnitus” (priority 2006, published 2007)

What was measured:
[1] = test system: patients with Ménière's disease; assay: Randomized, double blind, placebo-controlled cross-over clinical trial: tinnitus loudness after intratympanic injection; format: in vivo, human; conditions: for Effect on tinnitus loudness: intratympanic injection; for Reduction of tinnitus loudness in decibels, Day 5: Day 5 after initiation; for Reduction of tinnitus loudness in decibels, Day 5 / Reduction of tinnitus loudness in decibels, Day 15 / Reduction of tinnitus loudness in decibels, Day 29: intratympanic once daily for 3 days, vs placebo, baseline-corrected, mean ± SEM, lithium salt 450 μg/ml, isopropyl ester 50 μg/ml; for Reduction of tinnitus loudness in decibels, Day 15: Day 15 after initiation; for Reduction of tinnitus loudness in decibels, Day 29: Day 29 after initiation
Source text: The invention is exemplified by the following non-limiting example based on a recently performed clinical trial: Patients suffering from unilateral Ménière's disease were enrolled in a randomized, double blind, placebo-controlled clinical trial. The study followed a cross-over protocol. The patients received an intratympanic injection (injection into the middle ear cavity) of latanoprost lithium salt or placebo once daily during the three first days of each treatment period. The effect on hearing and tinnitus loudness was measured on Days 5, 15 and 29. Thereafter there was a treatment-free cross-over period of 2 months. After the cross-over period the patient entered the second treatment period and latanoprost lithium salt or placebo was again administered by intratympanic injection once daily during the three first days, and the same measurements of hearing and tinnitus were repeated. Latanoprost lithium salt was tested at 50 μg/ml, 150 μg/ml and 450 μg/ml concentration, and in addition one group of patients received latanoprost (isopropyl ester) at 50 μg/ml concentration according to the same cross-over study protocol.

Lipophilicity comparison = format: physicochemical; conditions: ratio isopropyl ester / lithium salt
Source text: Although the concentration of latanoprost lithium salt was 9 times higher than the concentration of latanoprost (isopropyl ester) we believe that the main additional effect (compared with latanoprost) is based on the lithium salt because the lipophilicity of latanoprost (isopropyl ester) is more than 1000 times higher than the lipophilicity of the latanoprost lithium salt. Consequently the ester can be expected to traverse biological membranes such as the round window membrane much better than the water-soluble salt. […] The concentration of 450 μg/ml of latanoprost lithium salt corresponds to approximately 1 mM lithium, i.e. a concentration within the therapeutic range of lithium. The lower concentrations 150 μg/ml and 50 μg/ml of latanoprost lithium salt had no effect which can be anticipated if the effect on tinnitus loudness at least partly is based on the pharmacological effect of lithium since the two lower concentrations are below the therapeutic concentration range of lithium.

[2] = test system: patients suffering from Ménière's disease; conditions: cited from earlier work
[3] = man; lower ineffective, above 1.5 mM side effects may arise; cited from earlier work

SMILES | Effect on tinnitus loudness ([1]; 50 μg/ml) | Effect on tinnitus loudness ([1]; 150 μg/ml) | Reduction of tinnitus loudness in decibels, Day 5 [1] [decibels] | Reduction of tinnitus loudness in decibels, Day 15 [1] [decibels] | Reduction of tinnitus loudness in decibels, Day 29 [1] [decibels] | Lipophilicity relative to latanoprost lithium salt (Lipophilicity comparison) | Effect on hearing [2] | Effect on vertigo [2] | Effect on tinnitus ([2]; intratympanic injection) | Therapeutic plasma concentration [3] [mM]
O=C([O-])CCC/C=C\C[C@@H]1[C@@H](CC[C@@H](O)CCc2ccccc2)[C@H](O)C[C@@H]1O.[Li+] [Latanoprost acid lithium salt, latanoprost acid lithium salt] | no effect | no effect | −10.8 ± 3.5 | −15.4 ± 6.4 | −10.5 ± 3.9 | – | – | – | – | –
CC(C)OC(=O)CCC/C=C\C[C@@H]1[C@@H](CC[C@@H](O)CCc2ccccc2)[C@H](O)C[C@@H]1O [Latanoprost isopropyl ester, latanoprost] | – | – | −5.5 ± 2.7 | −9.5 ± 5.8 | −9.6 ± 4.6 | more than 1000 times | improved hearing | reduced vertigo | may reduce tinnitus | –
[Li] [Lithium, lithium] | – | – | – | – | – | – | – | – | – | 0.5 to 1.5
